Measured values taken from patent US7947688B2, “N-[3-(3-substituted-pyrazolo[1,5-a]pyrimidin-7-yl)phenyl]-sulfonamides, and compositions, and methods related thereto” (Ferrer Internacional, S.A., priority 2003, dated 2011).

Assays:
[1] = system: male CD1 mice; test: Predictive sedation-hypnosis test in mice (motor activity, crossings); assay type: in vivo; conditions: single equimolecular intraperitoneal dose, crossings over 30 min after dosing (first 5 min discarded) versus control
Description: • In vivo determination of predictive sedative-hypnotic action.
The in vivo effects of these compounds were assessed by a predictive sedation-hypnosis test in mice (D. J. Sanger et al., Eur. J. Pharmacol., 313, 35-42, 1996; and G. Griebel et al., Psychopharmacology, 146, 205-213, 1999). Groups of 5-8 male CD1 mice, weighing 22-26 g at the time of test, were used. The test compounds were administered in single equimolecular intraperitoneal doses, suspended in 0.25% agar with one drop of Tween in a volume of 10 ml/kg. Control animals received the vehicle alone. Using an Actisystem DAS16 (Panlab, S. L., Spain) the crossings (number of counts) were recorded for each mouse at 5-min intervals during a period of 30 minutes after dosing. The inhibition percentage of crossings of treated animals versus control animals (the first 5 min were discarded) was calculated.

[2] = molecular target: α2-GABAA receptor (Rattus norvegicus, UniProt P18508+P23576); test: Ligand-binding assay, radiolabeled flumazenil competition, rat spinal cord membranes; conditions: for inhibition at 10 µM: read-out: % Inhibition (10^−5 M), affinity for α2-GABAA receptor; for inhibition at 0.1 µM: read-out: % Inhibition (10^−7 M), affinity for α2-GABAA receptor
Description: Determination of the affinity of test compounds for α1- and α2-GABAA receptor.
Male Sprague-Dawley rats weighing 200-250 g at the time of experiment were used. After decapitation of the animal, the cerebellum (tissue that mostly contains α1-GABAA receptor) and spinal cord (tissue that mostly contains α2-GABAA receptor) were removed. The membranes were prepared according to the method by J. Lameh et al. (Prog. Neuro-Psychopharmacol. Biol. Psychiatry, 24, 979-991, 2000). Once the tissues weighed, they were suspended in 50 mM Tris.HCl (pH 7.7), 1:40 (v/v), homogenized and then centrifuged at 20000 g for 10 min at 7° C. The resulting pellet was resuspended under the same conditions and centrifuged again. The pellet was finally resuspended on a minimum volume and kept at −80° C. overnight. On the next day, the process was repeated until the final pellet was resuspended at a ratio of 1:10 (v/v).
Affinity was determined by competitive tests using radiolabeled flumazenil as ligand. The tests were performed according to the methods described by S. Arbilla et al. (Eur. J. Pharmacol., 130, 257-263, 1986); and Y. Wu et al. (Eur. J. Pharmacol., 278, 125-132, 1995). The membranes containing the study receptors, flumazenil (radiolabeling at a final concentration of 1 nM) and ascending concentrations of test compounds (in a total volume of 500 μl in […] [ph 7.4] Tris.HCl buffer) were incubated. Simultaneously, the membranes were only incubated with the radiolabeled flumazenil (total binding, 100%) and in the presence of an elevated concentration of unradiolabeled flumazenil (non-specific binding, % estimation of radiolabeled ligand). The reactions started on adding the radiolabeled ligand followed by incubation for 60 minutes at 0° C. At the end of the incubation period, the tubes were filtered using a Brandel Mod. M-48R harvester and then washed three times with cold test buffer. The harvester was fitted with a GF/B filter that retained the membranes containing the receptors and the radiolabeled ligand which had been bound to the receptors. Then the filters were removed and left till dry. Once dried, the filters were cut, placed in vials with scintillation liquid and left under stirring overnight. The next day the filters were counted using a Packard Mod. Tricarb scintillation counter.
X: amount of bound ligand for every concentration of compound.
T: total binding, maximum amount bound to the radiolabeled ligand.
N: non-specific binding, amount of radiolabeled ligand bound in a non-specific way irrespective of the receptor used.
Every concentrations of compound were tested in duplicate and their mean values were used to determine the experimental values of % specific binding versus the concentration of compound. […] Inhibition constants (Ki) were calculated from the IC50 values according to Cheng-Prusoff's formula (Y. Cheng y W. H. Prusoff, Biochem. Pharmacol., 22(23), 3099-3108, 1973).

Compound	% Motor Activity Inhibition [1]	melting point	inhibition at 10 µM [2]	inhibition at 0.1 µM [2]
CN(c1cccc(-c2ccnc3c(C#N)cnn23)c1)S(C)(=O)=O [Example 2, N-[3-(3-cyano-pyrazolo[1,5-a]pyrimidin-7-yl)-phenyl]-N-methyl-methanesulfonamide]	71.39%	193 to 195 °C		
CN(c1cccc(-c2ccnc3c(C(=O)c4cccs4)cnn23)c1)S(C)(=O)=O [Example 3, N-methyl-N-{3-[3-(thiophene-2-carbonyl)-pyrazolo[1,5-a]pyrimidin-7-yl]-phenyl}-methanesulfonamide]	93.58%	169 to 170 °C		
CN(c1cccc(-c2ccnc3c(C(=O)c4cccs4)cnn23)c1)S(=O)(=O)c1ccccc1Cl [Example 77, N-methyl-N-{3-[3-(thiophene-2-carbonyl)-pyrazolo[1,5-a]pyrimidin-7-yl]-phenyl}-2-chlorobenzene-sulfonamide]	70.12%		88.5%	13.8%
CN(c1cccc(-c2ccnc3c(C(=O)c4cccs4)cnn23)c1)S(=O)(=O)c1cccc(Cl)c1 [Example 78, N-methyl-N-{3-[3-(thiophene-2-carbonyl)-pyrazolo[1,5-a]pyrimidin-7-yl]-phenyl}-3-chlorobenzenesulfonamide]	36.12%		36.2%	0%
CN(c1cccc(-c2ccnc3c(C(=O)c4cccs4)cnn23)c1)S(=O)(=O)c1ccc(Cl)cc1 [Example 79, N-methyl-N-{3-[3-(thiophene-2-carbonyl)-pyrazolo[1,5-a]pyrimidin-7-yl]-phenyl}-4-chlorobenzenesulfonamide]	51.50%		52.9%	0%
CN(c1cccc(-c2ccnc3c(C(=O)c4cccs4)cnn23)c1)S(=O)(=O)c1ccccc1C#N [Example 82, N-methyl-N-{3-[3-(thiophene-2-carbonyl)-pyrazolo[1,5-a]pyrimidin-7-yl]-phenyl}-2-cyanobenzene-sulfonamide]	39.87%		31.8%	0%
CN(c1cccc(-c2ccnc3c(C(=O)c4cccs4)cnn23)c1)S(=O)(=O)c1cccc(C#N)c1 [Example 83, N-methyl-N-{3-[3-(thiophene-2-carbonyl)-pyrazolo[1,5-a]pyrimidin-7-yl]-phenyl}-3-cyanobenzene-sulfonamide]	53.38%		94.4%	39.1%
CN(c1cccc(-c2ccnc3c(C(=O)c4cccs4)cnn23)c1)S(=O)(=O)c1ccc(C#N)cc1 [Example 84, N-methyl-N-{3-[3-(thiophene-2-carbonyl)-pyrazolo[1,5-a]pyrimidin-7-yl]-phenyl}-4-cyanobenzene-sulfonamide]	68.98%		89.5%	0%
CN(c1cccc(-c2ccnc3c(C(=O)c4cccs4)cnn23)c1)S(=O)(=O)c1cccs1 [Example 87, N-methyl-N-{3-[3-(thiophene-2-carbonyl)-pyrazolo[1,5-a]pyrimidin-7-yl]-phenyl}-2-thiophene-sulfonamide]	74.88%		97.6%	65.1%
Cc1nc(C)c(S(=O)(=O)N(C)c2cccc(-c3ccnc4c(C(=O)c5cccs5)cnn34)c2)s1 [Example 91]	72.85%		84.1%	4.8%
CN(c1cccc(-c2ccnc3c(C(=O)c4cccs4)cnn23)c1)S(=O)(=O)C1CC1 [Example 92, N-methyl-N-{3-[3-(thiophene-2-carbonyl)-pyrazolo[1,5-a]pyrimidin-7-yl]-phenyl}-cyclopropyl-sulfonamide]	74.36%		95.7%	36.5%
C=CS(=O)(=O)N(C)c1cccc(-c2ccnc3c(C(=O)c4cccs4)cnn23)c1 [Example 94, N-methyl-N-{3-[3-(thiophene-2-carbonyl)-pyrazolo[1,5-a]pyrimidin-7-yl]-phenyl}-vinylsulfonamide]	88.69%		99.5%	41.2%
